# Reference: article PMC4503722, “Novel Phenotypic Outcomes Identified for a Public Collection of Approved Drugs from a Publicly Accessible Panel of Assays” (PLoS ONE, 2015)
# How the values were obtained:
# Colo320 = test: cells; format: cell-based; settings: for Basal_Viability ATP Colo 320 IC50/EC50: assay number 27
# HT-29 = test: cells; format: cell-based; settings: for Basal_Viability ATP HT-29 IC50/EC50: assay number 28
# [1] = test system: nuclear β-catenin in C2C12 cells; test: cells; format: cell-based; settings: concentration response; for WntCondMedia_bCatenin C2C12 IC50/EC50: assay number 5
# SNU-C1 = test: cells; format: cell-based; settings: for Basal_Viability ATP SNU-C1 IC50/EC50: assay number 30
# HCT116 = test: cells; format: cell-based; settings: basal; for Basal_Viability ATP HCT116 IC50/EC50: assay number 25
# [2] = test system: HCT116 cells treated with a GSK3β inhibitor; test: cells; format: cell-based; settings: for GSK3b inh pretreated_Viability ATP HCT116 IC50/EC50: assay number 26, GSK3b inhibitor pretreated
# hp70S6K1 (RPS6KB1) = target: T1, hp70S6K1 (RPS6KB1) (Homo sapiens, UniProt P23443); test: Cerep LANCE kinase assay hp70S6K1 (S1 assay 31); format: biochemical; settings: for hp70S6K1 LANCE IC50/EC50: assay number 31
# T1 construct: purchased Cerep (LANCE kinase assay platform, contract assay)
# T1 sequence (P23443 whole entry): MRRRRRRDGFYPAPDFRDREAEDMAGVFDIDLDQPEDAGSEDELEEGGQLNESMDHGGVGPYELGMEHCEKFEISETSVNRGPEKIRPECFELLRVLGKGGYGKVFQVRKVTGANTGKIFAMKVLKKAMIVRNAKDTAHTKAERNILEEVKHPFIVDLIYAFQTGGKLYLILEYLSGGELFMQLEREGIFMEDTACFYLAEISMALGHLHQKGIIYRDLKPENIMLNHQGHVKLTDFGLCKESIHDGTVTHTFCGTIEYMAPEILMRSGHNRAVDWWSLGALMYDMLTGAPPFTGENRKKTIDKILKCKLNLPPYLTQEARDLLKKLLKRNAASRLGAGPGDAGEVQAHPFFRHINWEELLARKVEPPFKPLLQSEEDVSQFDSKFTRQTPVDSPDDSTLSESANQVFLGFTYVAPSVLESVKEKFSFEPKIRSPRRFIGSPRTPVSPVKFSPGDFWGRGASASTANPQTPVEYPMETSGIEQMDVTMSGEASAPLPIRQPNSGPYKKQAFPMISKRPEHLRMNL
# [3] = test system: alkaline phosphatase (ALP) activity in C2C12 cells; format: cell-based; settings: concentration response; for WntCondMedia_Alk Phos C2C12 IC50/EC50: assay number 6
# hKDR = target: T2, hKDR (Homo sapiens, UniProt P35968); test: Cerep LANCE kinase assay hKDR (S1 assay 32); format: biochemical; settings: for hKDR LANCE IC50/EC50: assay number 32
# T2 construct: purchased Cerep (LANCE kinase assay platform, contract assay)
# T2 sequence (P35968 20-1356): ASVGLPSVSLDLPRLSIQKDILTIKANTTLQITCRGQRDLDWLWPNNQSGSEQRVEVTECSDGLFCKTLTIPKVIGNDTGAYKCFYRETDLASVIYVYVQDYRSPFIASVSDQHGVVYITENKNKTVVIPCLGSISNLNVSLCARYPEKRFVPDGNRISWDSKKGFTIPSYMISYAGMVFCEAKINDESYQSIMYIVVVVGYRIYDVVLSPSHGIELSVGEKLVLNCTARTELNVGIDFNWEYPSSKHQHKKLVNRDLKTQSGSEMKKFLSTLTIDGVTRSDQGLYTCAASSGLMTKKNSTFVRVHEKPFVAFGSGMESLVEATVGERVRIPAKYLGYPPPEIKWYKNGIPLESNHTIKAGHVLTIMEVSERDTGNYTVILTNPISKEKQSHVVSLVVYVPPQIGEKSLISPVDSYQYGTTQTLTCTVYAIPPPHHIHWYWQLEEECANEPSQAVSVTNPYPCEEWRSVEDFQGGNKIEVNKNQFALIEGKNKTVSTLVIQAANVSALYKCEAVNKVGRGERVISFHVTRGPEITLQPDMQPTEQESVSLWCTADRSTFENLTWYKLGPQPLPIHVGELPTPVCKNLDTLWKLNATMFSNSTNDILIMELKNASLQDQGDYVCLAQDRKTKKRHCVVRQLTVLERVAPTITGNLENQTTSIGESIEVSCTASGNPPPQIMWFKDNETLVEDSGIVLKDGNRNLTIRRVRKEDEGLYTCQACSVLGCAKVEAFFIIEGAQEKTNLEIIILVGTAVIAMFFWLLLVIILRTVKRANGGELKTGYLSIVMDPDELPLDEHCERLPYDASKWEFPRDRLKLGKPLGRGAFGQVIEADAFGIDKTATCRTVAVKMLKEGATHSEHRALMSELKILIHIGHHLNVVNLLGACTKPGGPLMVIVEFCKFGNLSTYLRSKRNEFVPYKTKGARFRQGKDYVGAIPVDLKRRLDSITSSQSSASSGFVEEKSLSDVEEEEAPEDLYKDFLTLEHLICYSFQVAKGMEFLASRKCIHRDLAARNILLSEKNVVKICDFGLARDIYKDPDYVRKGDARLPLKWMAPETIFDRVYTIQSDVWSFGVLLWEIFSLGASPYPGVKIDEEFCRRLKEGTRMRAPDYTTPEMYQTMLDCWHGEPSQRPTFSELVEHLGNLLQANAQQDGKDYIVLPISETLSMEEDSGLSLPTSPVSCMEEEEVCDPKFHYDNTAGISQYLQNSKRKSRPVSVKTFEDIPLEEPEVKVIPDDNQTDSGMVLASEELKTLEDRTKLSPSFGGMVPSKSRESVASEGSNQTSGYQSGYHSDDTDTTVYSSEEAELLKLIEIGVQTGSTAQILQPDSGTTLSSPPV
# hJAK2 = target: T3, hJAK2 (Homo sapiens, UniProt O60674); test: Cerep LANCE kinase assay hJAK2 (S1 assay 33); format: biochemical; settings: for hJAK2 LANCE IC50/EC50: assay number 33
# T3 construct: purchased Cerep (LANCE kinase assay platform, contract assay)
# T3 sequence (O60674 whole entry): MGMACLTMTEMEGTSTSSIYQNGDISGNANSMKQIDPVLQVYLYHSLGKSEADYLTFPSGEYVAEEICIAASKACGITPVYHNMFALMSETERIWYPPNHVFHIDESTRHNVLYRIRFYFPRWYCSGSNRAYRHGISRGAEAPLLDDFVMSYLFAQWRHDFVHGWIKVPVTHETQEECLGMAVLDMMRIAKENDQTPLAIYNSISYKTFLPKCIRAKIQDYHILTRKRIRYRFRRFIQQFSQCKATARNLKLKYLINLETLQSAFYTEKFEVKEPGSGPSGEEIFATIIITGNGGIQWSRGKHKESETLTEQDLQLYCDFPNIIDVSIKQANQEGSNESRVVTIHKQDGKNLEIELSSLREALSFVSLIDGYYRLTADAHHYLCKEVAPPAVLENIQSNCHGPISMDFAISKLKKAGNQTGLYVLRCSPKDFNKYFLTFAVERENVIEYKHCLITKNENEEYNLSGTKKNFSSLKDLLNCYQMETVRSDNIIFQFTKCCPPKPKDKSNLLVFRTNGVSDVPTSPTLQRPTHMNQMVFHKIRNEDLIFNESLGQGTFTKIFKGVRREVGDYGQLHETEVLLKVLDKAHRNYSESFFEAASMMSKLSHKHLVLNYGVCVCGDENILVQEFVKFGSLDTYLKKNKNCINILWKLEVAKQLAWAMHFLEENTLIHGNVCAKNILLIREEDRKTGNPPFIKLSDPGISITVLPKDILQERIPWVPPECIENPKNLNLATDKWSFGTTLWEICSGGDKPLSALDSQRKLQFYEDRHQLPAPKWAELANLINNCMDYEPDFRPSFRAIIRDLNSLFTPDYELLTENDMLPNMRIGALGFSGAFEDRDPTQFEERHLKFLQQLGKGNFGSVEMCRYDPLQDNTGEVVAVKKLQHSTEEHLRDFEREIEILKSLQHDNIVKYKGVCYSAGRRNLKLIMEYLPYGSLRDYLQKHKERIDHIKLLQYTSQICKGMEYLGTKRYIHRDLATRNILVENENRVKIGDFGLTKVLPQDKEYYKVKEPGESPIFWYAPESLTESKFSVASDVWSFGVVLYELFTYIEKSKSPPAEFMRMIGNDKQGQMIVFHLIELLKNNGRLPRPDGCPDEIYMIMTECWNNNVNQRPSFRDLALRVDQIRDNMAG
# DLD-1 = test: cells; format: cell-based; settings: for Basal_Viability ATP DLD-1 IC50/EC50: assay number 23
# hGSK3b = target: T4, hGSK3b (Homo sapiens, UniProt P49841); test: Cerep LANCE kinase assay hGSK3b (S1 assay 34); format: biochemical; settings: for hGSK3b LANCE IC50/EC50: assay number 34
# T4 construct: purchased Cerep (LANCE kinase assay platform, contract assay)
# T4 sequence (P49841 whole entry): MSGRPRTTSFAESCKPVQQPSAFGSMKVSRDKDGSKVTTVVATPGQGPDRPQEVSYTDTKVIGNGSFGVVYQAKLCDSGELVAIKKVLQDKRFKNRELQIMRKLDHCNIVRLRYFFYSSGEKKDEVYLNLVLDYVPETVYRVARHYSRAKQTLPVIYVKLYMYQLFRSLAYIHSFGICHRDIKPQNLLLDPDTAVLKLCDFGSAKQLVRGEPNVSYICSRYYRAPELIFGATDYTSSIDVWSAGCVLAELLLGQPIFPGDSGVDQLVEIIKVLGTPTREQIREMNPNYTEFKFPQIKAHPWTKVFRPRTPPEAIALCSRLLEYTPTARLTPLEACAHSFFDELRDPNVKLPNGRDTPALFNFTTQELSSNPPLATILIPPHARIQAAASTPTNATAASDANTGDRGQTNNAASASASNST
# [4] = test system: ECFC/ADSC co-culture cell nuclei number
# hFLT3 = target: T5, hFLT3 (Homo sapiens, UniProt P36888); test: Cerep LANCE kinase assay hFLT3 (S1 assay 35); format: biochemical; settings: for hFLT3 LANCE IC50/EC50: assay number 35
# T5 construct: purchased Cerep (LANCE kinase assay platform, contract assay)
# T5 sequence (P36888 27-993): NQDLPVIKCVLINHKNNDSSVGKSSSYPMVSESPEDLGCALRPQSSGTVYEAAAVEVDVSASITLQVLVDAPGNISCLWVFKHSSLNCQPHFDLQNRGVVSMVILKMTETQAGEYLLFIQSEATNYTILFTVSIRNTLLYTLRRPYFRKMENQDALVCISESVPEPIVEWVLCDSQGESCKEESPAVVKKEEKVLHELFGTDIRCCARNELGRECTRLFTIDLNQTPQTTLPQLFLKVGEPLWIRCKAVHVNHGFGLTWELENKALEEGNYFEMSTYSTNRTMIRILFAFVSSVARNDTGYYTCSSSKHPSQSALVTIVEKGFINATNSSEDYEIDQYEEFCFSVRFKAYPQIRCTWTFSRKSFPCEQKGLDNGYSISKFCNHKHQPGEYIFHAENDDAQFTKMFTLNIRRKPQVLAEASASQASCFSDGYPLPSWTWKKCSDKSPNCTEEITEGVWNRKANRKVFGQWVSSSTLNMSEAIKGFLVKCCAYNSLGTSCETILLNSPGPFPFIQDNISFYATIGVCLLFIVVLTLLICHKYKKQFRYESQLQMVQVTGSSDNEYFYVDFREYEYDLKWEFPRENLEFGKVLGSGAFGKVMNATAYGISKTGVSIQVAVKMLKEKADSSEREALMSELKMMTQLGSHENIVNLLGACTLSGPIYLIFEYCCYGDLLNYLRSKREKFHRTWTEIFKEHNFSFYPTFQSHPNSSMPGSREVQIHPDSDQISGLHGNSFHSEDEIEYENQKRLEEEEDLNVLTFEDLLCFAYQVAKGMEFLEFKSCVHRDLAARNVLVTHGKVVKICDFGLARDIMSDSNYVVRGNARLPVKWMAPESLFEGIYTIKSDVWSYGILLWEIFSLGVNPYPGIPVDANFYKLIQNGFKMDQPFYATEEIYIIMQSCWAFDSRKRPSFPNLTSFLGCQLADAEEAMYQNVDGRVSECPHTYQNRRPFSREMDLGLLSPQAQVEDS
# RKO = test: cells; format: cell-based; settings: for Basal_Viability ATP RKO IC50/EC50: assay number 29
# [5] = test system: endothelial tube formation in co-cultures of ECFCs and ADSCs treated with VEGF; test: cells; format: cell-based, human
# SW480 = test: cells; format: cell-based; settings: for Basal_Viability ATP SW480 IC50/EC50: assay number 24
# HeLa cells = test: cells; format: cell-based; settings: for Hela CellCycMod PI 2N IC50/EC50: assay number 14; for Hela CellCycMod PI S Phase IC50/EC50: assay number 15; for Hela CellCycMod PI 4N IC50/EC50: assay number 16; for Hela CellCycMod PI MI IC50/EC50: assay number 17; for Hela CellCycMod PI Cell Number IC50/EC50: assay number 18
smiles,measurement,setting,value
COc1ccc2cc1Oc1ccc(cc1)C[C@H]1c3c(cc4c(c3Oc3cc5c(cc3OC)CCN(C)[C@@H]5C2)OCO4)CCN1C [NCGC00161621-03],Basal_Viability ATP Colo 320 IC50/EC50,Colo320,1.426 µM
same,Basal_Viability ATP HT-29 IC50/EC50,HT-29,1.365 µM
same,WntCondMedia_bCatenin C2C12 IC50/EC50,[1],5.6301 µM
same,Basal_Viability ATP SNU-C1 IC50/EC50,SNU-C1,7.483 µM
same,Basal_Viability ATP HCT116 IC50/EC50,HCT116,9.5422 µM
same,GSK3b inh pretreated_Viability ATP HCT116 IC50/EC50,[2],3.567 µM
same,hp70S6K1 LANCE IC50/EC50,hp70S6K1 (RPS6KB1),> 20 µM
same,WntCondMedia_Alk Phos C2C12 IC50/EC50,[3],2.0494 µM
same,hKDR LANCE IC50/EC50,hKDR,> 20 µM
same,hJAK2 LANCE IC50/EC50,hJAK2,> 20 µM
same,Basal_Viability ATP DLD-1 IC50/EC50,DLD-1,12.3697 µM
same,hGSK3b LANCE IC50/EC50,hGSK3b,> 20 µM
same,VEGF_ADSC\ECFC Angio Hoechst NucArea IC50/EC50,[4],> 10 µM
same,hFLT3 LANCE IC50/EC50,hFLT3,> 20 µM
same,Basal_Viability ATP RKO IC50/EC50,RKO,3.787 µM
same,VEGF_ADSC\ECFC Angio CD31 TubeArea IC50/EC50,[5],3.0213 µM
same,Basal_Viability ATP SW480 IC50/EC50,SW480,0.308 µM
same,Hela CellCycMod PI 2N IC50/EC50,HeLa cells; 2N,> 10 µM
same,Hela CellCycMod PI S Phase IC50/EC50,HeLa cells,> 10 µM
same,Hela CellCycMod PI 4N IC50/EC50,HeLa cells; 4N,> 10 µM
same,Hela CellCycMod PI MI IC50/EC50,HeLa cells; MI,> 10 µM
same,Hela CellCycMod PI Cell Number IC50/EC50,HeLa cells,5.5384 µM
COCc1c(C(C)C)nc(C(C)C)c(/C=C/[C@@H](O)C[C@@H](O)CC(=O)[O-])c1-c1ccc(F)cc1.[Na+] [NCGC00164625-04],Basal_Viability ATP Colo 320 IC50/EC50,Colo320; basal,1.924 µM
same,Basal_Viability ATP HT-29 IC50/EC50,HT-29; basal,1.212 µM
same,WntCondMedia_bCatenin C2C12 IC50/EC50,[1],> 6.667 µM
same,Basal_Viability ATP SNU-C1 IC50/EC50,SNU-C1; basal,1.8733 µM
same,Basal_Viability ATP HCT116 IC50/EC50,HCT116,0.2403 µM
same,GSK3b inh pretreated_Viability ATP HCT116 IC50/EC50,[2],0.05291 µM
same,hp70S6K1 LANCE IC50/EC50,hp70S6K1 (RPS6KB1),> 20 µM
same,WntCondMedia_Alk Phos C2C12 IC50/EC50,[3],> 20 µM
same,hKDR LANCE IC50/EC50,hKDR,> 20 µM
same,hJAK2 LANCE IC50/EC50,hJAK2,> 20 µM
same,Basal_Viability ATP DLD-1 IC50/EC50,DLD-1; basal,2.507 µM
same,hGSK3b LANCE IC50/EC50,hGSK3b,> 20 µM
same,VEGF_ADSC\ECFC Angio Hoechst NucArea IC50/EC50,[4],0.259 µM
same,hFLT3 LANCE IC50/EC50,hFLT3,> 20 µM
same,Basal_Viability ATP RKO IC50/EC50,RKO; basal,1.013 µM
same,VEGF_ADSC\ECFC Angio CD31 TubeArea IC50/EC50,[5],0.0894 µM
same,Basal_Viability ATP SW480 IC50/EC50,SW480; basal,0.1433 µM
same,Hela CellCycMod PI 2N IC50/EC50,HeLa cells; 2N,> 10 µM
same,Hela CellCycMod PI S Phase IC50/EC50,HeLa cells,> 10 µM
same,Hela CellCycMod PI 4N IC50/EC50,HeLa cells; 4N,> 10 µM
same,Hela CellCycMod PI MI IC50/EC50,HeLa cells; MI,> 10 µM
same,Hela CellCycMod PI Cell Number IC50/EC50,HeLa cells,> 10 µM
O=c1c(-c2ccccc2)c1-c1ccccc1 [NCGC00166113-04],"IC50/EC50, Basal_Viability ATP Colo 320 (assay number 27)",Colo320; basal,3.1012 µM
same,"IC50/EC50, Basal_Viability ATP HT-29 (assay number 28)",HT-29; basal,> 20 µM
same,"IC50/EC50, WntCondMedia_bCatenin C2C12 (assay number 5)",[1],> 20 µM
same,"IC50/EC50, Basal_Viability ATP SNU-C1 (assay number 30)",SNU-C1; basal,> 20 µM
same,"IC50/EC50, Basal_Viability ATP HCT116 (assay number 25)",HCT116,> 20 µM
same,"IC50/EC50, GSK3b inh pretreated_Viability ATP HCT116 (assay number 26)",[2]; GSK3b inh pretreated,7.707 µM
same,"IC50/EC50, hp70S6K1 LANCE (assay number 31)",hp70S6K1 (RPS6KB1),> 20 µM
same,"IC50/EC50, WntCondMedia_Alk Phos C2C12 (assay number 6)",[3],3.6201 µM
same,"IC50/EC50, hKDR LANCE (assay number 32)",hKDR,> 20 µM
same,"IC50/EC50, hJAK2 LANCE (assay number 33)",hJAK2,> 20 µM
same,"IC50/EC50, Basal_Viability ATP DLD-1 (assay number 23)",DLD-1; basal,4.208 µM
same,"IC50/EC50, hGSK3b LANCE (assay number 34)",hGSK3b,> 20 µM
same,"IC50/EC50, VEGF_ADSC\ECFC Angio Hoechst NucArea (assay number 3)",[4],6.7548 µM
same,"IC50/EC50, hFLT3 LANCE (assay number 35)",hFLT3,> 20 µM
same,"IC50/EC50, Basal_Viability ATP RKO (assay number 29)",RKO; basal,> 20 µM
same,"IC50/EC50, VEGF_ADSC\ECFC Angio CD31 TubeArea (assay number 2)",[5],3.8353 µM
same,"IC50/EC50, Basal_Viability ATP SW480 (assay number 24)",SW480; basal,> 20 µM
same,"IC50/EC50, Hela CellCycMod PI 2N (assay number 14)",HeLa cells; 2N,> 10 µM
same,"IC50/EC50, Hela CellCycMod PI 4N (assay number 16)",HeLa cells; 4N,> 10 µM
same,"IC50/EC50, Hela CellCycMod PI Cell Number (assay number 18)",HeLa cells; Cell Number,1.6859 µM
same,"IC50/EC50, Hela CellCycMod PI MI (assay number 17)",HeLa cells; MI,> 10 µM
Cc1nc2ccc(CN(C)c3ccc(C(=O)N[C@@H](CCC(=O)O)C(=O)O)s3)cc2c(=O)[nH]1 [NCGC00229704-01],Basal_Viability ATP Colo 320 IC50/EC50,Colo320,> 20 µM
same,Basal_Viability ATP HT-29 IC50/EC50,HT-29,> 20 µM
same,WntCondMedia_bCatenin C2C12 IC50/EC50,[1],0.0127 µM
same,Basal_Viability ATP SNU-C1 IC50/EC50,SNU-C1,> 20 µM
same,Basal_Viability ATP HCT116 IC50/EC50,HCT116,0.00424 µM
same,GSK3b inh pretreated_Viability ATP HCT116 IC50/EC50,[2],0.0023 µM
same,hp70S6K1 LANCE IC50/EC50,hp70S6K1 (RPS6KB1),> 20 µM
same,WntCondMedia_Alk Phos C2C12 IC50/EC50,[3],0.0042 µM
same,hKDR LANCE IC50/EC50,hKDR,> 20 µM
same,hJAK2 LANCE IC50/EC50,hJAK2,> 20 µM
same,Basal_Viability ATP DLD-1 IC50/EC50,DLD-1,> 20 µM
same,hGSK3b LANCE IC50/EC50,hGSK3b,3.99 µM
same,VEGF_ADSC\ECFC Angio Hoechst NucArea IC50/EC50,[4],> 10 µM
same,hFLT3 LANCE IC50/EC50,hFLT3,> 20 µM
same,Basal_Viability ATP RKO IC50/EC50,RKO,0.00288 µM
same,VEGF_ADSC\ECFC Angio CD31 TubeArea IC50/EC50,[5],0.3544 µM
same,Basal_Viability ATP SW480 IC50/EC50,SW480,0.001 µM
same,Hela CellCycMod PI 2N IC50/EC50,HeLa cells; 2N,> 10 µM
same,Hela CellCycMod PI 4N IC50/EC50,HeLa cells; 4N,> 10 µM
same,Hela CellCycMod PI MI IC50/EC50,HeLa cells; MI,> 10 µM
same,Hela CellCycMod PI Cell Number IC50/EC50,HeLa cells,> 10 µM
